According to patent US9133140B2, “Cycloalkylamne derivatives” (Daiichi Sankyo Company, Limited, priority 2008, dated 2015):
Structures can show the parent of a compound that is named as a salt. Where two headings read alike, the source gives them in different places.

How the values were obtained:
human CaSR = target: T1, human CaSR (Homo sapiens, UniProt P41180); test: Human CaSR activity measurement test (intracellular calcium in TT cells); type: cell-based; conditions: [EC50 of test compound]/[EC50 of Compound A], intracellular calcium fluorescence
T1 construct: TT cells are cell lines that express human CaSR; endogenous in cells; host or cells: TT cells (human medullary thyroid carcinoma cell line)
T1 sequence (P41180 20-1078): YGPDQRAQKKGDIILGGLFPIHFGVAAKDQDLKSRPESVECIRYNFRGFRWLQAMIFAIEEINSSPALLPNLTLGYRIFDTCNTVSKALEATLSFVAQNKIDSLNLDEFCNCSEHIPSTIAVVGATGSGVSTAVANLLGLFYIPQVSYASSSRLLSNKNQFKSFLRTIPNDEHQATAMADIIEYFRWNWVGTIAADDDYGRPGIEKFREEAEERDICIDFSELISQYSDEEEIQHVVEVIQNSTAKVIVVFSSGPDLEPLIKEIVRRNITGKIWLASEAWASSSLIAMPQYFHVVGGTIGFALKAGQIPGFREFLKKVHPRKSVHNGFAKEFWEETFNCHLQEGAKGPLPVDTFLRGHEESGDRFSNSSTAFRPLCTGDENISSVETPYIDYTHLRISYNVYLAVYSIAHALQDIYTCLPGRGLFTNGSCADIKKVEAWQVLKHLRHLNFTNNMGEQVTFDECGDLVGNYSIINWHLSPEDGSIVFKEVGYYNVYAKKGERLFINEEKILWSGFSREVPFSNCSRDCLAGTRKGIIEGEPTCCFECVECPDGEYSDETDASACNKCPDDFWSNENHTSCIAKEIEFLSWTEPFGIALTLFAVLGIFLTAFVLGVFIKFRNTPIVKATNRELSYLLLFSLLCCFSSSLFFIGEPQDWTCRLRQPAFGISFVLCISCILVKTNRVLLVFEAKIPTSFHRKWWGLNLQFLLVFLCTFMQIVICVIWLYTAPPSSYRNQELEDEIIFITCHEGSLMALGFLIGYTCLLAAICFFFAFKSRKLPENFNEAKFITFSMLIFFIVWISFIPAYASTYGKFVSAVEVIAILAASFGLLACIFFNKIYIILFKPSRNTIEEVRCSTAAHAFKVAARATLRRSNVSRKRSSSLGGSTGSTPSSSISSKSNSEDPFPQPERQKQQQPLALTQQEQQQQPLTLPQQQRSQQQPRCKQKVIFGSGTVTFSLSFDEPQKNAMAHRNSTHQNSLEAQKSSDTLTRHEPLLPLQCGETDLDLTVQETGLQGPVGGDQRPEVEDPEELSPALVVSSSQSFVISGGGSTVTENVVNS
Protocol: It is reported that human medullary thyroid carcinoma cell lines TT cells are cell lines that express human CaSR, and when CaSR is activated by extracellular calcium ions or the like, intracellular calcium ion concentration increases (Endocrinology 137: 3842-3848, 1996). Accordingly, an activating action of the test compounds with respect to human CaSR was evaluated by using the change in intracellular calcium concentration of TT cells as an indicator. TT cells were inoculated onto a black well/clear bottom 96 well plate (poly-D-lysine coat: manufactured by BD biosciences), and were cultured for approximately 24 hours in a F-12 Nutrient Mixture (Kaighn's modification) culture media containing 10% calf serum and 0.5% antibiotic antimycotic. […] Then, the plate was allowed to stand for 1 hour at 37° C. Subsequently, the above-mentioned plate was placed onto FlexStation (manufactured by Molecular Device) or FlexStation 3 (manufactured by Molecular Device), and fluorescence intensity before and after treatment with the test compound dissolved in a buffer for measurement (126 mM NaCl, 4 mM KCl, 1 mM MgCl2, 20 mM HEPES (pH 7.4), 5.6 mM glucose, 2 mM CaCl2) was measured. […] Nagano, Pharmacol. […] WO 1996/12697) as a comparative compound, by conducting a similar procedure. From the following equation, the human CaSR activity of each of the test compounds was calculated as the relative activity with respect to Compound A. Relative activity with respect to Compound A=[EC50 of test compound]/[EC50 of Compound A]

[1] = tested on: calcium ion concentration in the blood; test: Measurement test for concentration of parathyroid hormone and calcium ion in rat blood; type: in vivo; conditions: read-out: reduction of calcium concentration in the blood
Protocol: Three male SD rats (manufactured by Japan SLC, Inc.) were orally administered with the test compound, and effects on the concentration of parathyroid hormone (PTH) in the blood and concentration of the calcium ion in the blood were studied.
The test compound was administered by dissolving or suspending it in a 0.5% methyl cellulose 400 (MC) solution or 0.5% MC solution containing 10% of ethanol. (In addition, Compound A used in Test Example 1 was administered as a MC suspension by dosage of 30 mg/kg, and was studied as a comparative example.) Blood was collected from the jugular vein under anesthesia with halothane or isoflurane, before administration of the test compound, and 2, 4, 6 or 8 and 24 hours after administration. Calcium ion concentration in the blood was measured using cartridge EG7+(manufactured by Fuso Chemical Co., Ltd.) and i-STAT 300F (manufactured by Fuso Chemical Co., Ltd.). In addition, plasma intact PTH concentration was measured using Rat intact PTH ELISA kit (manufactured by Immutopics).
The transition of calcium ion concentration in the blood over time from before administration to 24 hours after administration of each of the test compounds was plotted, and the decrease in calcium ion concentration in the blood from the value before administration was calculated as an area value.

[2] = male SD rats, oral, 10 mg/kg, 4 hours after administration

Row | SMILES | Relative activity with respect to Compound A (human CaSR) | also measured
1 | C[C@@H](NC1CC[C@@H](c2ccc(OCC(=O)O)cc2)C1)c1ccc(F)c2ccccc12 (mixture of isomers) [Example 16, {4-[(1R)-3-{[(1R)-1-(4-Fluoronaphthalen-1-yl)ethyl]amino}cyclopentyl]phenoxy}acetic acid] | 0.72 | inhibition in vivo at 10 mg/kg [1, 2]: ≥ 30%
2 | C[C@@H](NCCCc1cccc(C(F)(F)F)c1)c1cccc2ccccc12 [Compound A, ((R)-1-naphthalen-1-yl-ethyl)-[3-(3-trifluoromethyl-phenyl)-propyl]-amine monohydrochloride, reference compound] | – | inhibition in vivo at 30 mg/kg ([1]; male SD rats, oral, 30 mg/kg, 4 hours after administration): 15 to 30%
3 | C[C@@H](N[C@H]1CC[C@@H](c2cccc(-c3nn[nH]n3)c2)C1)c1cccc2ccccc12 [Example 1, (1S,3R)-N-[(1R)-1-(Naphthalen-1-yl)ethyl]-3-[3-(2H-tetrazol-5-yl)phenyl]cyclopentanamine hydrochloride] | 0.30 | –
4 | C[C@@H](N[C@H]1CC[C@@H](c2ccc(-c3nn[nH]n3)cc2)C1)c1cccc2ccccc12 [Example 3, (1S,3R)-N-[(1R)-1-(Naphthalen-1-yl)ethyl]-3-[4-(2H-tetrazol-5-yl)phenyl]cyclopentanamine hydrochloride] | 0.18 | inhibition in vivo at 10 mg/kg [1, 2]: ≥ 30%
5 | C[C@@H](NC1CC[C@H](c2ccc(-c3nn[nH]n3)cc2)C1)c1cccc2ccccc12 (stereo partly drawn) [Example 4, (3S)-N-[(1R)-1-(Naphthalen-1-yl)ethyl]-3-[4-(2H-tetrazol-5-yl)phenyl]cyclopentanamine hydrochloride] | 0.33 | –
6 | C[C@@H](N[C@H]1CC[C@@H](c2ccc(C(=O)NCC(=O)O)cc2)C1)c1cccc2ccccc12 [Example 5, N-{4-[(1R,3S)-3-{[(1R)-1-(Naphthalen-1-yl)ethyl]amino}cyclopentyl]benzoylglycine hydrochloride] | 0.52 | –
7 | C[C@@H](N[C@H]1CC[C@@H](c2cccc(CC(=O)O)c2)C1)c1cccc2ccccc12 [Example 7, {3-[(1R,3S)-3-{[(1R)-1-(Naphthalen-1-yl)ethyl]amino}cyclopentyl]phenyl}acetic acid hydrochloride] | 0.26 | inhibition in vivo at 10 mg/kg [1, 2]: ≥ 30%
8 | C[C@@H](N[C@H]1CC[C@@H](c2ccc(CC(=O)O)cc2)C1)c1cccc2ccccc12 [Example 8, {4-[(1R,3S)-3-{[(1R)-1-(Naphthalen-1-yl)ethyl]amino}cyclopentyl]phenyl}acetic acid hydrochloride] | 0.61 | inhibition in vivo at 10 mg/kg [1, 2]: ≥ 30%
9 | C[C@@H](N[C@H]1CC[C@@H](c2ccc(CCC(=O)O)cc2)C1)c1cccc2ccccc12 [Example 9, 3-{4-(1R,3S)-3-{[(1R)-1-(Naphthalen-1-yl)ethyl]amino}cyclopentyl]phenyl}propanoic acid hydrochloride] | 0.38 | –
10 | C[C@@H](N[C@H]1CC[C@@H](c2ccc(OCC(=O)O)cc2)C1)c1cccc2ccccc12 [Example 10, {4-[(1R,3S)-3-{[(1R)-1-(Naphthalen-1-yl)ethyl]amino}cyclopentyl]phenoxy}acetic acid hydrochloride] | 0.28 | inhibition in vivo at 10 mg/kg [1, 2]: ≥ 30%
11 | C[C@@H](N[C@H]1CC[C@@H](c2cccc(OCC(=O)O)c2)C1)c1cccc2ccccc12 [Example 12, {3-[(1R,3S)-3-{[(1R)-1-(Naphthalen-1-yl)ethyl]amino}cyclopentyl]phenoxy}acetic acid hydrochloride] | 0.36 | –
12 | Cc1ccc([C@@H](C)NC2CC[C@@H](c3ccc(OCC(=O)O)cc3)C2)c2ccccc12 (stereo partly drawn) [Example 22, {4-[(1R)-3-{[(1R)-1-(4-Methylnaphthalen-1-yl)ethyl]amino}cyclopentyl]phenoxy}acetic acid] | 0.42 | –
13 | C[C@@H](N[C@H]1CC[C@@H](c2ccc(OCC(=O)O)cc2)C1)c1ccc(F)c2cc(F)ccc12 [Example 23, {4-[(1R,3S)-3-{[(1R)-1-(4,6-Difluoronaphthalen-1-yl)ethyl]amino}cyclopentyl]phenoxy}acetic acid] | – | inhibition in vivo at 0.3 mg/kg ([1]; male SD rats, oral, 0.3 mg/kg, 4 hours after administration): ≥ 20%
14 | C[C@@H](N[C@H]1CC[C@@H](c2ccc(-c3nn[nH]n3)cc2)C1)c1ccc(F)c2ccccc12 [Example 26, (1S,3R)-N-[(1R)-1-(4-Fluoronaphthalen-1-yl)ethyl]-3-[4-(2H-tetrazol-5-yl)phenyl]cyclopentanamine hydrochloride] | 0.27 | –
15 | C[C@@H](N[C@H]1CC[C@H](c2ccc(CCC(=O)O)cc2)C1)c1cccc2ccccc12 [Example 29, 3-{4-[(1S,3S)-3-[(1R)-1-(4-Naphthalen-1-yl)ethyl]amino}cyclopentyl]phenyl}propanoic acid hydrochloride] | 0.30 | –
16 | Cc1cc([C@@H]2CC[C@H](N[C@H](C)c3cccc4ccccc34)C2)ccc1OCC(=O)O [Example 32, {2-Methyl-4-[(1R,3S)-3-{[(1R)-1-(naphthalen-1-yl)ethyl]amino}cyclopentyl]phenoxy}acetic acid hydrochloride] | 0.26 | –
17 | C[C@@H](N[C@H]1CC[C@@H](c2ccc(NCC(=O)O)cc2)C1)c1ccc(F)c2ccccc12 [Example 35, N-{4-[(1R,3S)-3-{[(1R)-1-(4-Fluoronaphthalen-1-yl)ethyl]amino}cyclopentyl]phenyl}glycine 0.3 hydrochloride] | – | inhibition in vivo at 10 mg/kg ([1]; po, 4 h): ≥ 30%
18 | C[C@@H](N[C@H]1CC[C@@H](c2ccc(SCC(=O)O)cc2)C1)c1ccc(F)c2ccccc12 [Example 37, ({4-[(1R,3S)-3-{[(1R)-1-(4-Fluoronaphthalen-1-yl)ethyl]amino}cyclopentyl]phenyl}thio)acetic acid hydrochloride] | 0.10 | –
19 | C[C@@H](N[C@H]1CC[C@@H](c2ccc(OCc3nn[nH]n3)cc2)C1)c1cccc2ccccc12 [Example 38, (1S,3R)-N-[(1R)-1-(Naphthalen-1-yl)ethyl]-3-[4-(2H-tetrazol-5-ylmethoxy)phenyl]cyclopentanamine hydrochloride] | 0.13 | –
20 | C[C@@H](N[C@H]1CC[C@@H](c2ccc(OCc3nn[nH]n3)cc2)C1)c1ccc(F)c2ccccc12 [Example 39, (1S,3R)-N-[(1R)-1-(4-Fluoronaphthalen-1-yl)ethyl]-3-[4-(2H-tetrazol-5-ylmethoxy)phenyl]cyclopentanamine hydrochloride] | 0.07 | –
